Earlier results on 1 molecule are cited in patent US20230414692A1, “ETHANOLIC EXTRACT OF SEEDS OF SOLANUM MELONGENA, METHOD FOR OBTAINING IT, PHARMACEUTICAL COMPOSITION CONTAINING IT AND USE THEREOF AS AN ANTITUMOUR AGENT” (UNIVERSIDAD DE GRANADA, priority 2020, published 2023).

Each structure is given as a SMILES string.

For series [1], the system named is 143B.TK osteosarcoma cell line. Particulars: Cohen et al., 1996.
In series [2] the test system is NIE.115 neuroblastoma cell line. As to conditions: Cohen et al., 1996.

As usually defined, the IC50 is the concentration needed to halve the response being measured. Consider `C/C=C(/C)C(=O)O[C@H]1C[C@@H](OC(C)=O)[C@@]2(C)CO[C@H]3[C@H]4O[C@@H]5C[C@@H](c6ccoc6)C(C)=C5[C@@]4(C)[C@H](CC(=O)OC)[C@]1(C)[C@@H]32` [Salannin], for which the half-inhibitory concentration (IC50) in series [1] was 89 ± 12 µM; in series [2] it was 133 ± 6 µM.
